# ± gives the expanded uncertainty stated by the source.
# Details: Liquid, Closed cell (Static) method
vapor or sublimation pressure (273.15 K) [kPa],Structure (SMILES),vapor or sublimation pressure (293.15 K) [kPa],vapor or sublimation pressure (313.15 K) [kPa],vapor or sublimation pressure (333.15 K) [kPa],vapor or sublimation pressure (353.15 K) [kPa]
4094 ± 16,C=C [ethene],–,–,–,–
3487 ± 13,O=C=O [carbon dioxide],–,–,–,–

Structure (SMILES),vapor or sublimation pressure (273.15 K) [kPa],vapor or sublimation pressure (293.15 K) [kPa],vapor or sublimation pressure (313.15 K) [kPa],vapor or sublimation pressure (333.15 K) [kPa],vapor or sublimation pressure (353.15 K) [kPa]
FC(F)Cl [chlorodifluoromethane],498 ± 3,911 ± 3,1529 ± 4,2426 ± 5,3664 ± 7

# — the NIST ThermoML archive (doi:10.1016/j.fluid.2017.08.005)
